For one assay, the system named is MUC1-wt. In words: BRD-4780 treatment in fs/+ knock-in mice, kidney MUC1-wt by IF. As to conditions: daily oral gavage, 7 days. The class given is in vivo, mouse. The protocol:
Mice were anesthetized with 3 L/min 02 mixed with 3% isoflurane using the Combi-Vet® system (Rothacher Medical, Bern, Switzerland) for 5 min. Mouse kidneys were removed, sagittally cut to half and rapidly frozen in Tissue-Tek® O.C.T. Compound, Sakura® Finetek (OCT) (25608-930, VWR) using dry ice and 100% ethanol. Five […] sagittal cryosections (CM1950, Leica) were thaw mounted on microscope slides (Fisherbrand™ Superfrost™ Plus, Fisher Scientific) and kept in the cryostat (at −26° C.) for the duration of the sectioning process. Sections were immersion-fixed for 10 min in 4% PFA (15710, Electron Microscopy Sciences), then washed in PBS. The slides were then subjected to antigen retrieval by immersion in 10 mM citric acid buffer (pH=6), for 10 minutes at 95° C. […]
MUC1-fs and MUC1-wt mean intensities were calculated in kidney sections of mice treated with either vehicle or BRD-4780 (FIGS. 4A, 4B and 12A). As MUC1-fs and MUC1-wt levels varied in different kidney regions, and as sections might contain different portions of the different kidney regions, the levels of these proteins were analyzed only in NCC-positive distal convoluted tubules. […] Each fluorescent channel intensity was measured and a threshold was set for the identification of NCC positive cells. MUC1-fs and MUC1-wt levels were then calculated only in the NCC positive cells. […]

Another assay has as its target T1, TMED9 (Homo sapiens, UniProt Q9BVK6).
T1 construct: TMED9 abundance in P cells at escalating temperatures (as indicated) with or without treatment with BRD-4780; endogenous in cells; host or cells: P cells (intact cells treated, then heated and lysed)
T1 sequence (Q9BVK6 38-235): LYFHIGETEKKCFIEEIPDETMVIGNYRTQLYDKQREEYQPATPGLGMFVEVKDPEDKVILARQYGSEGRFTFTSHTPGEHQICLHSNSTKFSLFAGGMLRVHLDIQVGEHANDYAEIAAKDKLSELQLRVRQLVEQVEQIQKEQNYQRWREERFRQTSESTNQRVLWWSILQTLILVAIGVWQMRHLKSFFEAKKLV
The experiment in a line: Cellular thermal shift assay (CETSA) for TMED9 in P cells. As to conditions: 5 μM, 1 hour. The class given is binding. The protocol: CETSAs were performed as previously described (Jafari et al., 2014; Reinhard et al., 2015). In brief, P cells were treated in the presence or absence of BRD-4780 for 1 hr, harvested (trypsinized), washed in PBS, resuspended in PBS (containing protease inhibitors) and distributed in 0.2 ml PCR tubes (100 μl; 600,000 cells). Cells were incubated at their designated temperatures for 3 min, then at 25° C. for 3 min and lysed by the addition of 1% NP-40. Immediately thereafter, samples were snap frozen and thawed using thermal cycler set at 25° C. Samples were spun at 20′000×g for 20 min (4° C.) to remove precipitated protein and the supernatant was analyzed by Western blot to examine the TMED9/Nischarin thermal stability.

Assay [1] concerns N cells expressing P23H mutant rhodopsin. The experiment in a line: Cell death (DRAQ7) in N cells expressing P23H mutant rhodopsin. The class given is cell-based, human. As to conditions: 5 μM, 72 hours. The protocol:
To study apoptosis and cell death in N and P cells, 384 well Cell Carrier Ultra plates (6057308, Perkin Elmer), pre-coated with 0.25 mg/mL Synthemax II SC Substrate (3535, Corning) were used. For UPR branch activation experiments (FIGS. 2B, 9I, 9J and 9G) N and P cells were treated as described in the corresponding figure legends. CellEvent Caspase-3/7 Green Detection Reagent (C10423, Thermo Fisher Scientific®) and DRAQ7 (DR71000, Biostatus) were used at 1:5000 to monitor apoptosis and cell death respectively. Cells were imaged daily during 4 days to monitor viability and image analysis was performed as described below. For rescue experiments, P cells were plated on 96 well Cell Carrier Ultra microplates (6055302, Perkin Elmer) at 30,000 cells/well and cultured for 24 hr. […]
Caspase 3/7 activation and/or DRAQ7 staining were used to calculate the fraction of cells going through apoptosis and/or cell death, respectively. Single cells were first identified using the digital phase contrast channel and cell number was calculated. Fluorescence intensities were then measured and the threshold for Caspase 3/7 and DRAQ7 positive staining was determined. As an output, the fraction of live (neither caspase3/7 nor DRAQ7 signal detected), apoptotic (caspase3/7 positive) or dead cells (DRAQ7 positive) was calculated in each well at a particular time point.

Entries after “also recorded” stand apart in the source; their conditions may differ.

As to `CC(C)[C@@H]1[C@H]2CC[C@H](C2)[C@H]1N` (racemic) [BRD-4780, 2-endo-amino-3-exo-isopropylbicyclo[2.2.1]heptane], in the assay on MUC1-wt, the “MUC1-wt in mouse kidneys” value was “no effect on MUC1-wt”. Further, the “TMED9 thermal stability (CETSA)” value at TMED9 is “shifted the TMED9 heat denaturation curve to significantly higher temperatures; also recorded: Higher abundance of TMED9 was noted at temperatures >47 °C”. Also, in assay [1], the “viability of cells expressing P23H mutant” value was “significantly improved”.

Source of the values: patent US12023308B2, “Agents for reversing toxic proteinopathies” (THE BROAD INSTITUTE, INC., priority 2019, dated 2024).
